assay: Fluorescence of the compound (precondition of the staining test); format: physicochemical
Protocol: Four-micrometer thick paraffin sections from an APP23 mouse at 26 months of age are deparaffinized in xylene and rehydrated. 10 mg of the compound are dissolved in 1 mL DMSO and diluted with deionized water 1:10. This staining solution is applied on sections for about 20 min. Section background is cleared by washing with 95% ethanol. Finally sections are dehydrated in 99% ethanol, cleared in xylene and mounted with Vectashield™. Sections are investigated using fluorescence microscopy with the following filter combination: Excitation 450490 nm, emission 510 nm. Twenty micrometer thick cryotom sections from a AD brain cortex are air dried and fixated in 4% PFA for 5 min. After washing in tap water sections are stained either with Thioflavine S or with the compound for 5 min and further processed as described above. The compound is dissolved in DMSO and diluted to a final concentration of 0.01% with 50% Ethanol, Thioflavine S is dissolved in 50% Ethanol, final concentration is 0.01%.

Fluorescence, not fluorescent:
CNc1cccc(-c2ccc3nonc3c2)c1 [Example 4, (3Benzo[1,2,5]oxadiazol-5-yl-phenyl)-methyl-amine]
FCCOc1ccc(-c2ccc3nonc3c2)cc1 [Example 5, 5-[4-(2-Fluoro-ethoxy)-phenyl]-benzo[1,2,5]oxadiazole]
O=C(NCCF)c1cncc(-c2ccc3nonc3c2)c1 [Example 11, 5Benzo[1,2,5]oxadiazol-5-yl-N-(2-fluoro-ethyl)-nicotinamide]
O=C(NCCF)c1cnccc1-c1ccc2nonc2c1 [Example 12, 4Benzo[1,2,5]oxadiazol-5-yl-N-(2-fluoro-ethyl)-nicotinamide]
CNc1ccc(-c2ccc3nonc3c2)cc1[N+](=O)[O-] [Example 21, (4Benzo[1,2,5]oxadiazol-5-yl-2-nitro-phenyl)-methyl-amine]

Reference: patent US7632851B2, “Benzo[1,2,5]oxadiazoles and benzol[1,2,5]thiadiazoles useful as histopathological staining agents, imaging agents and biomarkers” (Novartis AG, priority 2003, dated 2009)
